Results reported in patent US6342508B1, “N-hydroxy-2-(Alkyl,Aryl or Heteroaryl sulfanyl, sulfinyl or sulfonyl) 3-substituted alkyl, aryl or heteroarylamides as matrix metalloproteinase inhibitors” (American Cyanamid Company, priority 1997, dated 2002).

Legend:
[1] = target: T1, TACE (Homo sapiens, UniProt P78536); test: Procedure for Measuring TACE Inhibition (fluorescent peptidyl substrate); format: biochemical; conditions: for IC50: read-out: TACE IC 50
T1 construct: purchased Immunex
Protocol: Using 96-well black microtiter plates, each well recieves a solution composed of 10 μL TACE (Immunex, final concentration 1 μg/mL), 70 μL Tris buffer, pH 7.4 containing 10% glycerol (final concentration 10 mM), and 10 μL of test compound solution in DMSO (final concentration, DMSO concentration <1%) and incubated for 10 minutes at room temperature. The reaction is initiated by addition of a fluorescent peptidyl substrate (final concentration 100 μM) to each well and then shaking on a shaker for 5 sec. The reaction is read (excitation 340 nm, emission 420 nm) for 10 min. and the increase in fluorescence over time is plotted as a linear line. The slope of the line is calculated and represents the reaction rate. […] The mean (x±sem) of the control rate is calculated and compared for statistical significance (p<0.05) with drug-treated rates using Dunnett's multiple comparison test.

T1 sequence (P78536 215-824): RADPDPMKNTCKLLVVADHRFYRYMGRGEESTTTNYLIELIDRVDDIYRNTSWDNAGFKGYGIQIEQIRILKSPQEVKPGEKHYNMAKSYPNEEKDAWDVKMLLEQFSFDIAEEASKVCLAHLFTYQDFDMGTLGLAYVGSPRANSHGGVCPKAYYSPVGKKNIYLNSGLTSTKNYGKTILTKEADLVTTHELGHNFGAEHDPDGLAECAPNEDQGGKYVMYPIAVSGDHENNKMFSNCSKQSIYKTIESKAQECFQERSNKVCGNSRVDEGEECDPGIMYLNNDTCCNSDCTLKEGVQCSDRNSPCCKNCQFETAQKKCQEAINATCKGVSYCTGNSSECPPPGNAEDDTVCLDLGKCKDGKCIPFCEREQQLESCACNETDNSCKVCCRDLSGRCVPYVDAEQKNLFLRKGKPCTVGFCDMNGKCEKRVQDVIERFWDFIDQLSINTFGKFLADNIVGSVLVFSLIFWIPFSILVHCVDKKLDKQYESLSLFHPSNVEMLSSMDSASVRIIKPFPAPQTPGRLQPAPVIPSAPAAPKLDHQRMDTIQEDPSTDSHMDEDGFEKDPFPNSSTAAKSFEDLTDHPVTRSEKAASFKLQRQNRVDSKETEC

Row | Compound | melting point | also measured
1 | 3-(1-Hydroxycarbamoyl-heptylsulfinyl)-benzoicacid hydroxyamide [Example 188] | – | TACE % inhibition at 1 mM [1]: 16.2%
2 | COc1ccc(S(=O)(=O)C(CC=C(C)C)(Cc2ccc(OCCN3CCOCC3)cc2)C(=O)NO)cc1 (centres unmarked) [Example 24, 2-(4-Methoxy-benzenesulfonyl)-5-methyl-2-[4-(2-morpholin-4-yl-ethoxy)-benzyl]-hex-4-enoic acid hydroxyamide] | – | IC50 [1]: 0.0475 µM
3 | COc1ccc(S(=O)(=O)C(C/C=C(\C)CCC=C(C)C)(Cc2ccc(OCCN3CCOCC3)cc2)C(=O)NO)cc1 (centres unmarked) [Example 26, (4E)-2-(4-Methoxy-benzenesulfonyl)-5,9 dimethyl-2-(4-(2-morpholin-4-yl-ethoxy)-benzyl]-deca-4,8-dienoic acid hydroxyamide] | – | IC50 [1]: 0.0346 µM
4 | Cn1ccnc1S(=O)(=O)C(C)(Cc1ccc(-c2ccccc2)cc1)C(=O)NO (centres unmarked) [Example 47, 3-Biphenyl-4-yl-2-methyl-2-(1-methyl-1H-imidazole-2-sulfonyl)-propionic acid hydroxyamide] | 112 °C | –
5 | COc1ccc(S(=O)(=O)C(C)(Cc2ccc3ccccc3c2)C(=O)NO)cc1 (centres unmarked) [Example 52, N-hydroxy-2-(4-methoxy-benzenesulfonyl)-2-methyl-3-naphthalen-2-yl-propionamide] | 185 to 187 °C | –
6 | COc1ccc(S(=O)(=O)C(CCCc2ccccc2)(CCCc2ccccc2)C(=O)NO)cc1 [Example 57, 2-(4methoxy-benzenesulfonyl)-5phenyl-2-(3-phenyl-propyl)-pentanoic acid hydroxyamide] | 118 to 120 °C | –
7 | COc1ccc(S(=O)(=O)C(CCCCOc2ccccc2)(Cc2cccnc2)C(=O)NO)cc1 (centres unmarked) [Example 68, 2-(4-Methoxy-benzenesulfonyl)-6-phenoxy-2-pyridin-3-ylmethyl-hexanoic acid hydroxyamide] | 68 °C | –
8 | CCCCCC(Sc1ccc(OC)cc1)C(=O)NO (centres unmarked) [Example 80, 2-(4methoxy-phenylsulfanyl)-heptanoic acid hydroxyamide] | 90 to 95 °C | –
9 | COc1ccc(S(=O)(=O)C2(C(=O)NO)CCN(Cc3cccc(OC)c3)CC2)cc1 [Example 84, 4-(4-methoxy-benzenesulfonyl)-1-(3-methoxy-benzyl)-piperidine-4-carboxylic acid hydroxyamide] | 130 °C | –
10 | COc1ccc(S(=O)(=O)C2(C(=O)NO)CCN(Cc3ccc(Cl)c(Cl)c3)CC2)cc1 [Example 85, 1-(3,4-dichlorobenzyl)-4-(4-methoxy-benzenesulfonyl)-piperidine-4-carboxylic acid hydroxamide] | 192 to 195 °C | –
11 | COc1ccc(S(=O)(=O)C2(C(=O)NO)CCN(Cc3ccc(C)cc3)CC2)cc1 [Example 86, 4-(4-methoxy-benzenesulfonyl)-1-(4-methylbenzyl)-piperidine-4-carboxylic acid hydroxamide] | 176 to 177 °C | –
12 | COc1ccc(S(=O)(=O)C2(C(=O)NO)CCN(CCCc3ccccc3)CC2)cc1 [Example 91, 4-(4-methoxy-benzenesulfonyl)-1-(3-phenyl-propyl)-piperidine-4-carboxylic acid hydroxyamide] | 143 °C | –
13 | CCCCN1CCC(C(=O)NO)(S(=O)(=O)c2ccc(OC)cc2)CC1 [Example 93, 1-Butyl-4-(4-methoxy-benzenesulfonyl)-piperidine-4-carboxylic acid hydroxyamide] | 75 °C | –
14 | CCN1CCC(C(=O)NO)(S(=O)(=O)c2ccc(OC)cc2)CC1 [Example 95, 1-Ethyl-4-(4-methoxy-benzenesulfonyl)-piperidine-4-carboxylic acid hydroxyamide] | 85 °C | –
15 | COc1ccc(S(=O)(=O)C2(C(=O)NO)CCN(C)CC2)cc1 [Example 97, 1-Methyl-4-(4-methoxy-benzenesulfonyl)-piperidine-4-carboxylic acid hydroxyamide] | 89 °C | –
16 | CCCCOc1ccc(S(=O)(=O)C2(C(=O)NO)CCN(Cc3ccccc3)CC2)cc1 [Example 98, 1-Benzyl-4-(4-butoxy-benzenesulfonyl)-piperidine-4-carboxylic acid hydroxyamide] | 144 °C | –
17 | CCCCOc1ccc(S(=O)(=O)C2(C(=O)NO)CCN(Cc3ccc(F)cc3)CC2)cc1 [Example 100, 1-(4-Fluoro-benzyl)-4-(4-butoxy-benzenesulfonyl)-piperidine-4-carboxylic acid hydroxyamide] | 112 °C | –
18 | COc1ccc(S(=O)(=O)C2(C(=O)NO)CCN(CCCOc3ccccc3)CC2)cc1 [Example 105, 4-(4-Methoxy-benzenesulfonyl)-1-(3-phenoxy-propyl)-piperidine-4-carboxylic acid hydroxyamide] | 101 °C | –
19 | CCCCOc1ccc(S(=O)(=O)C2(C(=O)NO)CCN(CCCOc3ccccc3)CC2)cc1 [Example 106, 4-(4-n-Butoxy-benzenesulfonyl)-1-(3-phenoxy-propyl)-piperidine-4-carboxylic acid hydroxyamide] | 84 °C | –
20 | CCCCCCC(Sc1ccc(OCCCC)cc1)C(=O)NO (centres unmarked) [Example 200, 2-(4-Butoxy-benzenesulfanyl)-octanoic acid hydroxyamide] | – | TACE % inhibition at 1 mM [1]: 37.9%
21 | CCCCCCC(Sc1ccc(OCCN2CCNCC2)cc1)C(=O)NO (centres unmarked) [Example 201, 2-[4-(2-Piperazine-1-yl-ethoxy)-benzenesulfanyl]-octanoic acid hydroxyamide] | – | TACE % inhibition at 1 mM [1]: 50.9%

Continued, in another order:

Row | melting point | Compound | also measured
22 | 86 to 88 °C | COc1ccc(S(=O)(=O)C(C)(Cc2ccc(Br)cc2)C(=O)NO)cc1 (centres unmarked) [Example 51, 3-(4-Bromo-phenyl)-N-hydroxy-2-(4-methoxy-benzenesulfonyl)-2-methyl-propionamide] | –
23 | 220 °C | COc1ccc(S(=O)(=O)C(C(=O)NO)C(C)C)cc1 (centres unmarked) [Example 53, N-Hydroxy-2-(4methoxy-benzenesulfonyl)-3-methyl-butyramide] | –
24 | 89 to 91 °C | COc1ccc(S(=O)(=O)C2(C(=O)NO)CCCC2)cc1 [Example 54, 1-(4-Methoxy-benzenesulfonyl)-cyclopentanecarboxylic acid hydroxyamide] | –
25 | 93 to 96 °C | COc1ccc(S(=O)(=O)C(C)(Cc2ccccc2Br)C(=O)NO)cc1 (centres unmarked) [Example 55, 3-(2-Bromo-phenyl)-N-hydroxy-2-(4-methoxy-benzenesulfonyl)-2-methyl-propionamide] | –
26 | 162 to 164 °C | COc1ccc(S(=O)(=O)C(C)(CC=Cc2ccccc2)C(=O)NO)cc1 (centres unmarked) [Example 56, 2-(4-methoxy-benzenesulfonyl)-2-methyl-5-phenyl-pent-4-enoic acid hydroxyamide] | –
27 | 114 to 116 °C | C=CCC(CC=C)(C(=O)NO)S(=O)(=O)c1ccc(OC)cc1 [Example 58, 2-allyl-2-(4-methoxy-benzenesulfonyl)-pent-4-enoic acid hydroxyamide] | –
28 | 98 °C | COc1ccc(S(=O)(=O)C(C)(Cc2cccnc2)C(=O)NO)cc1 (centres unmarked) [Example 61, N-hydroxy-2-(4-methoxy-benzenesulfonyl)-2-methyl-3-pyridin-3-yl-propionamide] | –
29 | 62 °C | CCCCCCCCC(Cc1cccnc1)(C(=O)NO)S(=O)(=O)c1ccc(OC)cc1 (centres unmarked) [Example 62, 2-(4-Methoxy-benzenesulfonyl)-2-pyridin-3-ylmethyl-decanoic acid hydroxyamide] | –
30 | 89 to 92 °C | COc1ccc(S(=O)(=O)C(CC=C(C)C)(Cc2cccnc2)C(=O)NO)cc1 (centres unmarked) [Example 63, 2-(4-Methoxy-benzenesulfonyl)-5-methyl-2-pyridin-3-ylmethyl-hex-4-enoic acid hydroxyamide] | –
31 | 206 °C | COc1ccc(S(=O)(=O)C(C)(Cc2ccc3ncccc3c2)C(=O)NO)cc1 (centres unmarked) [Example 67, N-Hydroxy-2-(4-methoxy-benzensulfonyl)-2-methyl-3-quinolin-6-yl-propionamide] | –
32 | 70 °C | CCCCC(Cc1cccnc1)(C(=O)NO)S(=O)(=O)c1ccc(OC)cc1 (centres unmarked) [Example 70, 2-(4-Methoxy-benzenesulfonyl)-2-pyridin-3-ylmethyl-hexanoic acid hydroxyamide] | –
33 | 83 to 84 °C | CCCCCC#CCC(CC#CCCCCC)(C(=O)NO)S(=O)(=O)c1ccc(OC)cc1 [Example 71, 2-(4-methoxy-benzenesulfonyl)-2-oct-2-ynyl-dec-4-ynoic acid hydroxyamide] | –
34 | 141 to 143 °C | CC#CCC(CC#CC)(C(=O)NO)S(=O)(=O)c1ccc(OC)cc1 [Example 72, 2-(4-Methoxy-benzenesulfonyl)-2-but-2-ynyl-hex-4-ynoic acid hydroxyamide] | –
35 | 156 °C | C#CCC(CC#C)(C(=O)NO)S(=O)(=O)c1ccc(OC)cc1 [Example 73, 2-(4-Methoxy-benzenesulfonyl)-2-prop-2-ynyl-pent-4-ynoic acid hydroxyamide] | –
36 | 119 to 121 °C | C#CCC(Cc1cccnc1)(C(=O)NO)S(=O)(=O)c1ccc(OC)cc1 (centres unmarked) [Example 75, 2-(4-Methoxy-benzenesulfonyl)-2-pyridin-3-ylmethyl-pent-4-ynoic acid hydroxyamide] | –
37 | 161 to 163 °C | CC#CCC(CC#CC)(C(=O)NO)S(=O)(=O)c1ccc(F)cc1 [Example 78, 2-(4-Fluoro-benzenesulfonyl)-2-but-2-ynyl-hex-4-ynoic acid hydroxyamide] | –
38 | 93 to 96 °C | COc1ccc(S(=O)(=O)C(CC=C(C)C)(CC=C(C)C)C(=O)NO)cc1 [Example 79, 2-(4-Methoxy-benzenesulfonyl)-5-methyl-2-(3-methyl-but-2-enyl)-hex-4-enoic acid hydroxyamide] | –
